Results: patent US9026372B2, “Methods for providing a system of care for a high-dose oxazaphosphorine drug regimen” (Accentia Biopharmaceuticals, Inc., priority 2007, dated 2015)
Where two headings read alike, the source gives them in different places.

Tests used:
[1] = system: aggressive relapsing-remitting multiple sclerosis
Source text: All 9 patients had aggressive relapsing-remitting multiple sclerosis, 8 of whom failed conventional therapy and 1 was untreated. Median age at time of entry was 29 years (range of 20 to 47 years). The mean number of gadolinium enhancing lesions on baseline MRI was 6.5 (range 3-11).

[2] = system: white blood cell (WBC) count
Source text: On Day 6, (six days after completion of high-dose cyclophosphamide treatment), patients received G-CSF.

## O=P1(N(CCCl)CCCl)NCCCO1 (centres unmarked) [cyclophosphamide]
[1]; 9 patients, at baseline 66% had EDSS of 5.0 or more
  reduction in disability (EDSS): 50%
[1]; at 6 months following 50 mg/kg/day intravenously for four days, 9 patients, baseline mean 6.5 lesions
  reduction in gadolinium enhancements: 90%
[1]; by 18 months following 50 mg/kg/day intravenously for four days, 9 patients
  reduction in gadolinium enhancements: 94%
[1]; initial cohort of 9 patients with severe relapsing MS
  adverse outcomes: no significant adverse outcomes
[1]; of 9 patients, after treatment
  patients having no disability (EDSS score of 0): 3 patients
  patients with EDSS score of 1: 1 patient
[1]; of 9 patients, started on conventional MS therapy at 18 months
  patients with an exacerbation during follow-up: one
[2]; patient HiCy01, never had GEL, suspected exacerbations
  minimum WBC: 70
[2]; patient HiCy07, went to 0 GEL, single GEL on follow-up MRI
  minimum WBC: 6
[2]; patient HiCy11, GEL on every follow up
  minimum WBC count: 24
[2]; patient HiCy14, went to 0 GEL, single GEL on follow-up MRI
  minimum WBC: 31
[2]; patient HiCy19, GEL on every follow up, only 6 months of follow-up
  minimum WBC count: 50
[2]; patients HiCy05 and HiCy13, within two weeks of treatment, no GEL up to 24 months follow-up
  WBC count (minimum): 0
[2]; patients HiCy09 and HiCy15 (both), 0 GEL
  minimum WBC count: 12
